Patent US20100120700A1, “METHODS AND COMPOSITIONS FOR TREATING CERVICAL CANCER” (priority 2000, published 2010)
Where “and” joins values, the source holds several entries; their conditions need not be identical. Equal values may be shown once.

Assays:
Test in all cases: G assay PDZ-PL binding
Details in all cases: peptide 10 uM, protein 5
[1] = target: T1, MAGI 1 domain 3 (Homo sapiens, UniProt Q96QZ7)
T1 construct: made in house; host or cells: E. coli (DH5alpha, BL21 or JM109)
Outline: (§1)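 Specific PDZ–peptide binding is taken as replicate mean signal exceeding GST-only background by standard-error criteria. Biotinylated PL peptides (20 uM; 10 uM under G′ conditions) bind to plate-captured GST/PDZ fusion protein and are detected with streptavidin-HRP at 450 nm.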

[2] = target: T2, CASK domain 1 (Homo sapiens, UniProt O14936)
T2 construct: made in house; host or cells: E. coli (DH5alpha or BL-21)
T2 sequence (O14936 486-575): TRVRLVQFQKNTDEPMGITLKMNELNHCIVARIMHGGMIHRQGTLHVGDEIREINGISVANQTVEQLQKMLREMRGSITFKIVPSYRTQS
Outline: as §1

[3] = target: T3, EBP50 #341.1 domain 1 (Homo sapiens, UniProt O14745)
T3 construct: made in house; host or cells: E. coli (DH5alpha or BL-21)
T3 sequence (O14745 with tags, fused parts or gaps): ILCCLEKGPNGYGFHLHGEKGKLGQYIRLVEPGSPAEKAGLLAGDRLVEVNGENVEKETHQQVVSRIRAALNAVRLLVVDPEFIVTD
Outline: as §1

[4] = target: T4, Shroom domain 1 (Homo sapiens, UniProt Q8TF72)
T4 construct: made in house; host or cells: E. coli (DH5alpha or BL-21)
T4 sequence (Q8TF72 26-116): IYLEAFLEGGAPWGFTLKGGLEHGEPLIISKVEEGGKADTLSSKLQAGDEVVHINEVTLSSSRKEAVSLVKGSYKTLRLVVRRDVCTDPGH
Outline: as §1

[5] = target: T5, EBP50 #167.2 domain 1 (Homo sapiens, UniProt O14745)
T5 construct: made in house; host or cells: E. coli (DH5alpha or BL-21)
T5 sequence (O14745 with tags, fused parts or gaps): as the sequence (O14745 with tags, fused parts or gaps) above
Outline: as §1

[6] = target: T6, AIPC domain 1 (Homo sapiens, UniProt O15018)
T6 construct: made in house; host or cells: E. coli (DH5alpha, BL21 or JM109), vector pGEX-3X
T6 sequence (O15018 with tags, fused parts or gaps): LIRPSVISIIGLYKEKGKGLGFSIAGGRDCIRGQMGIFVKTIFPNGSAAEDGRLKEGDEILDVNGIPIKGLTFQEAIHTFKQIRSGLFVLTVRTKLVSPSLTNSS
Outline: as §1

[7] = target: T7, KIAA0147 domain 4 (Homo sapiens, UniProt Q14160)
T7 construct: made in house; host or cells: E. coli (DH5alpha, BL21 or JM109)
T7 sequence (Q14160 1099-1203): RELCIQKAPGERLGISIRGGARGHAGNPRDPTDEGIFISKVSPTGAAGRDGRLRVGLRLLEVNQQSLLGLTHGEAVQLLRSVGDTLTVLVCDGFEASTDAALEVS
Outline: as §1

[8] = target: T8, SSTRIP domain 1 (Homo sapiens, UniProt Q9Y566)
T8 construct: made in house; host or cells: E. coli (DH5alpha, BL21 or JM109)
T8 sequence (Q9Y566 with tags, fused parts or gaps): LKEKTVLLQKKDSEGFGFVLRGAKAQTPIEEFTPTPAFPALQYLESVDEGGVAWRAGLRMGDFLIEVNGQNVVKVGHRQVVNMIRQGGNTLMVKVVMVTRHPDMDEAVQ
Outline: as §1

[9] = target: T9, AF6 domain 1 (Homo sapiens, UniProt P55196)
T9 construct: made in house; host or cells: E. coli (DH5alpha or BL-21)
T9 sequence (P55196 1001-1093): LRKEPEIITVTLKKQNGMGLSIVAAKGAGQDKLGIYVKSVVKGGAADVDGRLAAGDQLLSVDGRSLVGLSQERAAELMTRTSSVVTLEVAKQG

[10] = test system: DLG-6 #333.1 domain 1; design: species or system human
Method: (§2) (1) A PDZ-domain polypeptide is bound to a surface, e.g. a protein binding surface. In a preferred embodiment, a GST/PDZ fusion protein containing one or more PDZ domains is bound to a polystyrene 96-well plate. […] In one embodiment, the GST/PDZ fusion protein is bound via an anti-GST antibody that is coated onto the 96-well plate. Adequate binding to the plate can be achieved when: • a. 100 uL per well of 5 ug/mL goat anti-GST polyclonal antibody (Pierce) in PBS is added to a polystyrene 96-well plate (e.g., Num Polysorb) at 4° C. for 12 hours. • b. The plate is blocked by addition of 200 uL per well of PBS/BSA for 2 hours at 4° C. • c. The plate is washed 3 times with PBS. • d. 50 uL per well of 5 ug/mL GST/PDZ fusion protein) or, as a negative control, GST polypeptide alone (i.e. not a fusion protein) in PBS/BSA is added to the plate for 2 hours at 4° C. • e. The plate is again washed 3 times with PBS. […]
(§3) (3) The binding of the biotinylated peptide to the GST/PDZ fusion protein surface can be detected using a variety of methods and detectors known to one of skill in the art. In one embodiment, 100 uL per well of 0.5 ug/mL streptavidin-horse radish peroxidase (HRP) conjugate dissolved in BSA/PBS is added and allowed to react for 20 minutes at 4° C. The plate is then washed 5 times with 50 mM Tris pH 8.0 containing 0.2% Tween 20, and developed by addition of 100 uL per well of HRP-substrate solution (TMB, Dako) for 20 minutes at room temperature (RT). The reaction of the HRP and its substrate is terminated by addition of 100 uL per well of 1M sulfuric acid, and the absorbance of each well of the plate is read at 450 nm.
(§4) (4) Specific binding of a PL peptide and a PDZ domain polypeptide is determined by comparing the signal from the well(s) in which the PL peptide and PDZ domain polypeptide are combined, with the background signal(s). The background signal is the signal found in the negative control(s). Typically a specific or selective reaction will be at least twice background signal, more typically more than 5 times background, and most typically 10 or more times the background signal. In addition, a statistically significant reaction will involve multiple measurements of the reaction with the signal and the background differing by at least two standard errors, more typically four standard errors, and most typically six or more standard errors. Correspondingly, a statistical test (e.g. a T-test) comparing repeated measurements of the signal with-repeated measurements of the background will result in a p-value<0.05, more typically a p-value<0.01, and most typically a p-value<0.001 or less. As noted, in an embodiment of the “G” assay, the signal from binding of a given PL peptide to immobilized (surface bound) GST polypeptide alone is one suitable negative control (sometimes referred to as “B 1”). Because all measurement are done in multiples (i.e. at least duplicate) the arithmetic mean (or, equivalently, average.) of several measurements is used in determining the binding, and the standard error of the mean is used in determining the probable error in the measurement of the binding. The standard error of the mean of N measurements equals the square root of the following: the sum of the squares of the difference between each measurement and the mean, divided by the product of (N) and (N−1). Thus, in one embodiment, specific binding of the PDZ protein to the platebound peptide is determined by comparing the mean signal (“mean S”) and standard error of the signal (“SE”) for a particular PL-PDZ combination with the mean B1.
(§5) For convenience, the assay conditions described in this section are referred to as the “G’ assay” and the “G” assay,” with the specific conditions described in the preceding section on G assays being referred to as the “G° assay.” The “G′ assay” is identical to the “G° assay” except at step (2) the peptide concentration is 10 uM instead of 20 uM. […]

[11] = test system: FLJ00011 domain 1; design: species or system human
Chain of FLJ00011 domain 1 (as listed by the source): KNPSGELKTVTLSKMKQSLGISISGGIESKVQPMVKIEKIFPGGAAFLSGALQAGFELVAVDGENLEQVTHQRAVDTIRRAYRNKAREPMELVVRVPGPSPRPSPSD
Method: as §2, §3, §4, §5

[12] = test system: NSP #268.2 domain 1; design: species or system human
Method: as §2, §3, §4, §5

T1 sequence (Q96QZ7 with tags, fused parts or gaps): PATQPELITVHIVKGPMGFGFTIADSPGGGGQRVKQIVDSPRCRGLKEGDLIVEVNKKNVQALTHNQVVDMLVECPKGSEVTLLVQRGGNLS

Substance: 20 mer peptide corresponding to the C-terminus of HPV16 E6 (PDZ ligand), biotinylated in binding assays; ends SSRTRRETQL (SEQ ID NO: 13) [HPV E6 #16]
- Ave OD ([1]; A450 nm): 0.354
- OD S/N ([1]; vs GST only well): 1.46
- Ave OD ([2]; A450 nm): 0.36
- OD S/N ([2]; vs GST only well): 1.15
- Ave OD ([3]; A450 nm): 0.43
- OD S/N ([3]; vs GST only well): 1.65
- Ave OD ([4]; A450 nm): 0.361
- OD S/N ([4]; vs GST only well): 3.25
- Ave OD ([5]; A450 nm): 0.3805 and 0.3555
- OD S/N ([5]; vs GST only well): 1.94 and 2.28
- Ave OD ([6]; A450 nm): 0.5595
- OD S/N ([6]; vs GST only well): 2.30
- Ave OD ([7]; A450 nm): 0.464 and 0.3795
- OD S/N ([7]; vs GST only well): 2.17 and 2.34
- Ave OD ([8]; A450 nm): 0.467
- OD S/N ([8]; vs GST only well): 3.28
- Ave OD ([9]; A450 nm): 0.444
- OD S/N ([9]; vs GST only well): 1.80
- Ave OD ([10]; A450 nm): 0.3495
- OD S/N ([10]; vs GST only well): 2.04
- Ave OD ([11]; A450 nm): 0.423 and 0.8185
- OD S/N ([11]; vs GST only well): 2.90 and 3.97
- Ave OD ([12]; A450 nm): 0.724
- OD S/N ([12]; vs GST only well): 2.58
